The values below are quoted from earlier work in publication PMC4691889 (Genes & Development, 2015).

The series concerns NTMT1. As to conditions: inhibition of NTMT1, determined in previous studies; ref Richardson et al. 2015.

Molecules are shown by their SMILES. pIC50: −log10 of the molar value.

Take `Nc1ncnc2c1ncn2[C@@H]1O[C@H](CSCC[C@H](N)C(=O)O)[C@@H](O)[C@H]1O` [SAH, S-adenosyl-L-homocysteine]: the pIC50 is 5.48.

By pIC50 is commonly meant −log10 of the IC50, conventionally taken in molar units.
